{"source": "patent US10363230B2", "about": "“6-shogaol derivatives and activities thereof” (North Carolina Agricultural and Technical State University, priority 2017, dated 2019)", "key": {"[1]": {"assay": "Biotransformation of xenobiotics in zebrafish embryos (LC/MS)", "assay_type": "in vivo", "conditions": "5 μM in incubation medium, 8 hpf to 24 hpf", "protocol": "Fifty zebrafish embryos at the 8 hour-post-fertilization (hpf) stage were incubated at 28.5° C. in 0.3× Danieau's solution (19.3 mM NaCl, 0.23 mM KCl, 0.13 mM MgSO4, 0.2 mM Ca(NO3)2, 1.7 mM HEPES, pH 7.0) with or without 5 μM 18 and 25-27, respectively. At 24 hpf, embryos were dechorionated manually and the chorions were carefully removed one by one from the culture medium. The zebrafish embryos were harvested and kept at −80° C. till analyzed by LC/MS.\n200 μL Sodium acetate buffer solution (pH 5.0) was added to 50 zebrafish embryos. Samples were homogenized for 90 s by an Omni Bead Ruptor Homogenizer (Kennesaw, Ga., United States of America). 10 μL 10% ascorbic acid and 300 μL sodium acetate buffer were added to the homogenates. The mixture was incubated in the presence of β-glucuronidase (250 U) and sulfatase (3 U) at 37° C. for 45 min, and then 600 μL MeOH with 1% acetic acid was added. The resulting mixture was vortexed for 30 s and then centrifuged at 17000 g for 10 min. The supernatant was removed and evaporated under a gentle stream of nitrogen. The residue was reconstituted in 150 μL 90% MeOH with 0.2% acetic acid (AA), and 10 μL was analyzed directly by LC/MS.\n(§1) LC/MS analysis was carried out with a Thermo-Finnigan Spectra System, which consisted of an Accela high speed MS pump, an Accela refrigerated autosampler, and an LCQ Fleet ion trap mass detector (Thermo Electron, San Jose, Calif., United States of America) incorporated with an electrospray ionization (ESI) interface. A Gemini-NX C18 column (150 mm×4.6 mm i.d., 5 μm; Phenomenex, Torrance, Calif., United States of America) was used for separation at a flow rate of 0.3 mL/min. The column was eluted with 100% A (5% aqueous methanol with 0.2% formic acid) for 1 min, followed by linear increases in B (95% aqueous methanol with 0.2% formic acid) to 55% from 1 to 4 min, to 85% from 4 to 25 min, then to 100% B from 25 to 30 min, and then with 100% B from 30 to 35 min. The column was then re-equilibrated with 100% A for 5 min. The LC eluent was introduced into the ESI interface. The positive ion polarity mode was set for the ESI source with the voltage on the ESI interface maintained at approximately 4.6 kV. Nitrogen gas was used as the sheath gas and auxiliary gas. Optimized source parameters, including capillary temperature (260° C.), sheath gas flow rate (31 arbitrary units), auxiliary gas flow rate (16 units), tube lens (34 V), and capillary voltage 9 V, were tuned using authentic samples. The collision-induced dissociation (CID) was conducted with an isolation width 2 Da and normalized collision energy of 35 for MS^2. The mass range was measured from 100 to 800 m/z. Data acquisition was performed with Xcalibur version 2.0 (Thermo Electron, San Jose, Calif., United States of America)."}, "heme oxygenase-1 (HO-1)": {"test_system": "heme oxygenase-1 (HO-1)", "assay": "Western blotting of HO-1 expression in CCD 841 CoN cells", "assay_type": "cell-based, human", "protocol": "Human normal colonic epithelial cells (CCD 841 CoN) were grown in Eagle's Minimum Essential Medium with 10% fetal bovine serum and 1% penicillin/streptomycin, and maintained at 37° C. in a 100% humidified atmosphere of 5% CO2 and 95% air. Fresh growth medium was added to the cells every two days until confluent. Cells were planted in 145×20 mm flat-bottomed tissue culture dishes and growth to 70-80% confluence and then treated with compound 27 for various doses and time points. At the end of incubation period, cell lysates were prepared in ice-cold Cell Lysis Buffer (Cell Signaling, Danvers, Mass., United States of America) with 1% protease inhibitor cocktail and 1% phenylmethylsulfonyl fluoride (Sigma, St. Louis, Mo., United States of America). Protein concentrations were measured using BCA Protein Assay Kit (Thermo Scientific, Rockford, Ill., United States of America). […] The bound complexes were detected with SuperSignal Chemiluminescent Substract (Thermo Scientific, Rockford, Ill., United States of America). The immunoblot bands were quantified by densitometry analysis, and the ratio to β-actin was calculated and presented."}, "[2]": {"assay": "Cysteine conjugates in mouse urine after oral gavage (LC/MS)", "assay_type": "in vivo", "conditions": "oral gavage 200 mg/kg, urine collected in 24 h", "protocol": "as §1, with “Optimized source parameters, including capillary temperature (260° C.), sheath gas flow rate (31 arbitrary units), auxiliary gas flow rate (16 units), tube lens (34 V), and capillary voltage 9 V, were tuned using authentic samples. The collision-induced dissociation (CID) was conducted with an isolation width 2 Da and normalized collision energy of 35 for MS^2.” left out, “Data acquisition was performed with Xcalibur version 2.0 (Thermo Electron, San Jose, Calif., United States of America).” left out\nEnzymatic deconjugation of mouse urine was performed as described previously with slight modifications. […] The resulting suspension was centrifuged at 17,000 g for 5 min, and 10 μL of supernatant was analyzed directly by LC/MS."}}, "note": "“Also recorded” adds a separate entry of the source."}
{"smiles": "CCCCCCCC(=O)/C=C/c1ccc(O)c(O)c1", "note": "[Compound 27]", "values": [{"measurement": "Cysteine conjugates (metabolites) detected in zebrafish embryos", "setting": "[1]", "value": "four cysteine conjugates 36, 36a, 37, and 37b"}, {"measurement": "HO-1 protein expression, time dependence", "setting": "heme oxygenase-1 (HO-1); CCD 841 CoN cells, 10 μM for 3, 6, 12 and 24 h, vs control, p<0.05 for all time points", "value": "significantly increased HO-1 expression; also recorded: increased HO-1 expression in a time-dependent manner"}, {"measurement": "HO-1 protein expression, dose dependence", "setting": "heme oxygenase-1 (HO-1); CCD 841 CoN cells, 5, 10 and 20 μM for 24 h, vs untreated control, p<0.05 for all concentrations", "value": "significantly increased HO-1 protein expression; also recorded: increased HO-1 expression in a dose-dependent manner"}, {"measurement": "Cysteine conjugates (metabolites) detected in mouse urine", "setting": "[2]", "value": "conjugate 36 and its reduced form 36a, three additional conjugates 37, 37a, and 37b"}]}
